Assay results: US9427479B2, “Tubulysin derivatives” (MedImmune LLC, priority 2014, dated 2016)

Key:
Assay type in all cases: cell-based
MB231 = assay: In vitro proliferation assay (CellTiter-Glo), MB231; conditions: Homo sapiens; MB231 cells; cultured 72 to 144 hours; CellTiter-Glo cell viability
DU145 = assay: In vitro proliferation assay (CellTiter-Glo), DU145; conditions: Homo sapiens, DU-145; DU145 cells; cultured 72 to 144 hours; CellTiter-Glo cell viability
Description: A panel of human cancer cell lines (DU 145, NCI-N87, and MDA-MB-361) obtained from the American Type Tissue Collection (ATCC) (P.O. Box 1549, Manassa, Va. 20108 (USA)) were used to determine the relative cytotoxicity of tubulysin compounds of the invention. The cells were plated in culture media at a density of 2,000 to 5,000 per well of tissue-culture-treated 96-well plates in a volume of 80 μl and allowed to adhere overnight. A 5× concentration of each compound tested was prepared by diluting the test articles in culture medium. Twenty microliters of each test article was added to cells in duplicate or triplicate such that the final dose curve ranged from 4 μg/ml down to 61 pg/ml in a stepwise 1:4 serial dilution series. The treated cells were cultured at 37° C./5% CO2 for 72 to 144 hours. The CellTiter-Glo Luminescent Viability Assay from Promega was used to determine relative cytotoxicity. Briefly, 100 μl of CellTiter-Glo reagent was added to each well, allowed to incubate for 10 minutes at room temperature with mild shaking and then the […] was read using a Perkin Elmer EnVision luminometer. The percent cell viability was calculated by the following formula: (average luminescence of treated samples/average luminescence of control (untreated) samples)×100. IC50 values were determined using logistic non-linear regression analysis with GraphPad Prism software. Not all compounds were assayed against all cell lines.

HCT116 = assay: In vitro proliferation assay (CellTiter-Glo), HCT116; conditions: Homo sapiens, HCT-116; HCT116 cells; cultured 72 to 144 hours; CellTiter-Glo cell viability

| SMILES | IC50 (MB231) | IC50 (DU145) | IC50 (HCT116) |
| --- | --- | --- | --- |
| CC[C@H](C)[C@H](NC(=O)[C@H]1C[C@H](C)CCN1C)C(=O)N(CC)[C@H](C[C@@H](OC(C)=O)c1nc(C(=O)N[C@@H](Cc2ccc(N)cc2)C[C@H](C)C(=O)O)cs1)C(C)C [Compound 1, (2S,4R)-4-(2-((1R,3R)-1-acetoxy-3-((2S,3S)-2-((2R,4R)-1,4-dimethylpiperidine-2-carboxamido)-N-ethyl-3-methylpentanamido)-4-methylpentyl)thiazole-4-carboxamido)-5-(4-aminophenyl)-2-methylpentanoic acid] | 2.5 nM | 0.2 nM | 0.6 nM |
| CC[C@H](C)[C@H](NC(=O)C1(CC)CCCCN1C)C(=O)N(CC)[C@H](C[C@@H](OC(C)=O)c1nc(C(=O)N[C@@H](Cc2ccc(N)cc2)C[C@H](C)C(=O)O)cs1)C(C)C (stereo partly drawn) [Compound 2, (2S,4R)-4-(2-((1R,3R)-1-acetoxy-3-((2S,3S)—N-ethyl-2-(2-ethyl-1-methylpiperidine-2-carboxamido)-3-methylpentanamido)-4-methylpentyl)thiazole-4-carboxamido)-5-(4-aminophenyl)-2-methylpentanoic acid] | – | 0.5 nM | – |
| CC[C@H](C)[C@H](NC(=O)[C@@]1(C)CCCCN1C)C(=O)N(CC)[C@H](C[C@@H](OC(C)=O)c1nc(C(=O)N[C@@H](Cc2ccc(N)cc2)C[C@H](C)C(=O)O)cs1)C(C)C [Compound 3, (2S,4R)-4-(2-((1R,3R)-1-acetoxy-3-((2S,3S)-2-((R)-1,2-dimethylpiperidine-2-carboxamido)-N-ethyl-3-methylpentanamido)-4-methylpentyl)thiazole-4-carboxamido)-5-(4-aminophenyl)-2-methylpentanoic acid] | – | 0.2 nM | – |
| CC[C@H](C)[C@H](NC(=O)[C@H]1CC(C)(C)CCN1C)C(=O)N(C)[C@H](C[C@@H](OC(C)=O)c1nc(C(=O)N[C@@H](Cc2ccccc2)C[C@H](C)C(=O)O)cs1)C(C)C [Compound 4, (2S,4R)-4-(2-((1R,3R)-1-acetoxy-3-((2S,3S)—N,3-dimethyl-2-((R)-1,4,4-trimethylpiperidine-2-carboxamido)pentanamido)-4-methylpentyl)thiazole-4-carboxamido)-2-methyl-5-phenylpentanoic acid] | 3.9 nM | 1.3 nM | 1.8 nM |
| CC[C@H](C)[C@H](NC(=O)[C@H]1C[C@H](C)CCN1C)C(=O)N(C)[C@H](C[C@@H](OC(C)=O)c1nc(C(=O)N[C@@H](Cc2ccccc2)C[C@H](C)C(=O)O)cs1)C(C)C [Compound 5, (2S,4R)-4-(2-((1R,3R)-1-acetoxy-3-((2S,3S)-2-((2R,4R)-1,4-dimethylpiperidine-2-carboxamido)-N,3-dimethylpentanamido)-4-methylpentyl)thiazole-4-carboxamido)-2-methyl-5-phenylpentanoic acid] | 3.4 nM | 0.9 nM | 0.5 nM |
| CC[C@H](C)[C@H](NC(=O)[C@H]1C[C@H](C)CCN1C)C(=O)N(C)[C@H](C[C@@H](OC(C)=O)c1nc(C(=O)N[C@@H](Cc2ccc(N)cc2)C[C@H](C)C(=O)O)cs1)C(C)C [Compound 6, (2S,4R)-4-(2-((1R,3R)-1-acetoxy-3-((2S,3S)-2-((2R,4R)-1,4-dimethylpiperidine-2-carboxamido)-N,3-dimethylpentanamido)-4-methylpentyl)thiazole-4-carboxamido)-5-(4-aminophenyl)-2-methylpentanoic acid] | 6.6 nM | 4 nM | 1.9 nM |
